From patent US20120308570A1, “METHODS FOR TREATING DISEASES” (priority 2009, published 2012) come the findings set out here.

The target of test [1] is T1, SSB-2ΔSB (Mus musculus, UniProt O88838).
T1 construct: GST (N, cleaved yes); made in house; host or cells: E. coli BL21 (DE3)
T1 sequence (O88838 12-224): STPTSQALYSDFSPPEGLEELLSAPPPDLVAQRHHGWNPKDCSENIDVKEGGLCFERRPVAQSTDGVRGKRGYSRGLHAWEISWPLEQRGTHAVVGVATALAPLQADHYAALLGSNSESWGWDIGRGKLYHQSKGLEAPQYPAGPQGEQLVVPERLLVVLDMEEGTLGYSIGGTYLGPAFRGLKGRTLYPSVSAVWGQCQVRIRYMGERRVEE
Description: 1H-15N HSQC NMR titration of iNOS peptide into 15N-labelled SSB-2ΔSB. The test is classed as binding. The conditions noted are these: 0.1 mM SSB-2ΔSB, ratios 1:0.5, 1:1, 1:1.5, pH 7.0, 22° C. How it is done:
NMR spectra were recorded on an Avance 500 spectrometer equipped with a cryoprobe. The ^1H chemical shifts were referenced indirectly to DSS at 0 ppm via the H2O signal, and the ^13C and ^15N chemical shifts were referenced indirectly using absolute frequency ratios (Wishart et al., 1995). Spectra were processed using Topspin version 1.3 (Bruker Biospin) and analysed using XEASY, version 1.3. ^15N-labelled SSB-2ΔSB Sample for NMR analysis were prepared in H2O containing 5% ^2H2O, 10 mM sodium phosphate, 50 mM sodium chloride, 2 mM EDTA, 2 mM DTT and 0.02% (w/v) sodium azide at pH 7.0. Two-dimensional ^1H-^15N HSQC spectrum of a 0.1 mM ^15N-labelled SSB-2ΔSB sample was recorded and 22° C. using a data matrix size of 2048×256 and with 128 scans per t1 increment. The spectral widths were 13.5 ppm for ^1H and 40.0 ppm for ^15N; carrier frequencies were 4.7 ppm for ^1H and 118 ppm for ^15N. Unlabelled iNOS N-terminal peptide (wild-type) were then titrated into the ^15N-labelled SSB-2ΔSB sample, and ^1H-^15N HSQC spectra recorded at ^15N-labelled SSB-2ΔSB:iNOS peptide ratios of 1:0.5, 1:1, and 1:1.5.
Nuclear magnetic resonance (NMR) spectroscopy was then used to further analyze the SSB-2:iNOS peptide interaction. […]

Test [2] has as its target T2, SSB-2 SPRY domain (SSB-2ΔSB, residues 12-224) (Mus musculus, UniProt O88838).
T2 construct: GST (N, cleaved yes); made in house; host or cells: E. coli BL21 (DE3)
T2 sequence (O88838 12-224): T1 sequence (O88838 12-224)
In words: ITC of SSB-2 SPRY domain with iNOS N-terminal peptides. The test is classed as binding. The conditions noted are these: 25° C., 100 mM TrisHCl, 150 mM NaCl, pH 8.0. The text has this:
The construct used for expression of recombinant murine SSB-2 protein included almost all the native sequence of mouse SSB-2 except for the SOCS box and the first eleven residues (residues 12-224, SWISS-PROT accession number 088838). This sequence, together with six residues at the N-terminus (GSSARQ (SEQ ID NO:38), numbered 6-11) and seven at the C-terminus (TRRIHRD (SEQ ID NO:39), numbered 225-231), both originating from the vector, gave a construct of 226 residues in total. This was expressed as a GST fusion protein in BL21 (DE3) E. coli. For ITC and co-precipitation experiments, bacteria were grown in L-broth. For NMR analysis, bacteria were grown in M9 minimal media supplemented with ^15N NH4Cl (99%, 1 g L−1). The GST fusion protein was purified from clarified cell lysates using Glutathione Sepharose 4B (Amersham Biosciences) then cleaved in situ using thrombin (Roche). […]
To determine whether the SSB-2-SPRY domain could interact with the sequence identified by the database searches, a series of peptides including the wild-type and various mutant sequences corresponding to amino acids 19-31 of murine iNOS, were synthesized and binding affinities for the SSB-2-SPRY domain (residues 12-224; SSB-2ΔSB) measured using isothermal titration calorimetry (ITC) (Table 2, FIG. 3).

As to “Ac-KEEKDINNNVKKT-NH2 [I, Ac-KEEKDINNNVKKT-NH2]”, the “binding to SSB-2ΔSB by NMR” value in test [1] was “bound to SSB-2ΔSB”. Besides, the Kd – broadly, the equilibrium constant for the complex coming apart – in test [2] is 13 nM.
